Results from patent US20230416316A1, “ADP-RIBOSE BINDING PEPTIDES WITH ANTI-CANCER ACTIVITY AND USE THEREOF” (PearlsInMires Co., Ltd., priority 2021, published 2023).
Entries after “also recorded” stand apart in the source; their conditions may differ. Ends that are not written are not given here.

How the values were obtained:
Format in all cases: cell-based
[1] = test system: MDA-MB-231 cells; experiment: Viability of MDA-MB-231 cells, docetaxel alone or combined with peptides; settings: 50 μM docetaxel alone, 24 hours
Experimental: (§1) After culturing 3×10^3 MDA-MB-231 cells in a 96-well plate for 24 hours under conditions of 37° C. and 5% CO2, the cells were treated with 50 μM docetaxel alone or in combination with the peptides of Examples 15 to 28 at a concentration of 0.2, 1 or 8 μM. Then, the cells were cultured for 24 hours under conditions of 37° C. and 5% CO2, 10 μl of 3-(4,5-dimethylthiazol-2-yl)-2,5-diphenyltetrazolium bromide reagent was added to each well, followed by reaction for 1 hour. After the reaction was completed, the reagent was removed, 200 μl of dimethyl sulfoxide was added to each well, and the absorbance was measured to confirm cell viability.

[2] = test system: Caki-1 cells; experiment: Cell viability (MTT, photomicrographs) in Caki-1 cells; settings: 16 μM peptide, 24 hours
Experimental: (§2) After culturing 3×10^3 Caki-1 cells in a 96-well plate for 24 hours under conditions of 37° C. and 5% CO2, the cells were either untreated or treated with the peptides of Examples 1 to 28 at a concentration of 16 μM, respectively. Then, the cells were cultured for 24 hours under conditions of 37° C. and 5% CO2, and 10 μl of 3-(4,5-dimethylthiazol-2-yl)-2,5-diphenyltetrazolium bromide reagent was added to each well, followed by reaction for 1 hour. After the reaction was completed, the reagent was removed, 200 μl of dimethyl sulfoxide was added to each well, and the absorbance was measured to confirm cell viability.

[3] = test system: Caki-1 cells; experiment: ADP-ribose level by ELISA in Caki-1 cells; settings: 0.2-32 μM peptide, 24 hours
Experimental: (§3) The peptides of Examples 1 to 28 of the present disclosure are designed to inhibit the action of poly ADP-ribose degradation enzyme. In Experimental Example 1, it was confirmed through cell experiments whether poly ADP-ribose was inhibited from being degraded by each of the peptides and accumulated in cancer cells.
5×10^5 Caki-1 cells were divided into a group not treated with the peptide of Example and a group treated with 0.2, 1, 2, 4, 8, 16, and 32 μM of the peptide of Example 7 (SEQ ID NO: 7), and cultured for 24 hours under conditions of 37° C. and 5% CO2 in McCoy's 5A medium supplemented with 10% FBS, 100 units/ml penicillin, and 100 μg/ml streptomycin. The medium of the cultured cells was removed, and the samples were treated with RIPA buffer and 1% SDS. The prepared supernatant was used for ELISA analysis to detect and analyze ADP-ribose.

[4] = test system: HDPC; experiment: Cytotoxicity in normal cells HDPC; settings: HDPC human dermal papilla cell, 25, 50 and 100 μM, 24, 48 or 72 hours; listed as SEQ ID NO: 7
Experimental: (§4) As normal cells for testing, CCD-18Co, which is a human colon fibroblast, and HDPC, which is a human dermal papilla cell, were used. Further, the peptide of SEQ ID NO: 7 was used as a representative peptide of Examples of the present disclosure.
(§5) First, 5×10^3 cells of each normal cell were inoculated into a 96-well plate and cultured in DMEM medium for 24 hours under conditions of 37° C. and 5% CO2. The respective wells were divided into a group untreated with the peptide and groups treated with the peptide of SEQ ID NO: 7 (25, 50, and 100 μM, respectively), and tested.

[5] = test system: CCD-18Co; experiment: Cytotoxicity in normal cells CCD-18Co; settings: CCD-18Co human colon fibroblast, 25, 50 and 100 μM, 24, 48 or 72 hours; listed as SEQ ID NO: 7
Experimental: as §4, §5

[6] = test system: Aspc-1 cells; experiment: Viability of Aspc-1 cells, gemcitabine alone or combined with peptides; settings: 1 nM gemcitabine alone, 24 hours
Experimental: as §1, with “culturing 3×10^3 Aspc-1 cells in” for “culturing 3×10^3 MDA-MB-231 cells in”, “treated with 1 nM gemcitabine alone or” for “treated with 50 μM docetaxel alone or”, “5% CO2, and 10 μl” for “5% CO2, 10 μl”

[7] = test system: MDA-MB-231 cells; experiment: Cell viability (MTT, photomicrographs) in MDA-MB-231 cells; settings: 16 μM peptide, 24 hours
Experimental: as §2, with “culturing 3×10^3 MDA-MB-231 cells in” for “culturing 3×10^3 Caki-1 cells in”, “and 5% C02, the cells” for “and 5% CO2, the cells”

[8] = test system: MDA-MB-231 cells; experiment: ADP-ribose level by ELISA in MDA-MB-231 cells; settings: 0.2-32 μM peptide, 24 hours
Experimental: as §3
5×10^3 MDA-MB-231 cells were divided into a group not treated with the Example peptide and a group treated with 0.2, 1, 2, 4, 8, 16, and 32 μM of the peptide of Example 5 (SEQ ID NO: 5), and cultured for 24 hours under conditions of 37° C. and 5% CO2 in Leibovitz's L-15 medium supplemented with 10% FBS, 100 units/ml penicillin, and 100 μg/ml streptomycin. The medium of the cultured cells was removed, and the samples were treated with RIPA buffer and 1% SDS. The prepared supernatant was used for ELISA analysis to detect and analyze ADP-ribose.

[9] = test system: H1975 cells; experiment: Viability of H1975 cells, osimertinib alone or combined with peptides; settings: Homo sapiens, NCI-H1975, 1 nM osimertinib alone, 24 hours, read-out: viable cancer cells
Experimental: as §1, with “culturing 3×10^3 H1975 cells in” for “culturing 3×10^3 MDA-MB-231 cells in”, “treated with 1 nM osimertinib alone or” for “treated with 50 μM docetaxel alone or”, “of Examples 1 to 14” for “of Examples 15 to 28”, “1 to 14 at a” for “15 to 28 at a”, “5% CO2, and 10 μl” for “5% CO2, 10 μl”

[10] = test system: Hep G2 cells; experiment: Cell viability (MTT, photomicrographs) in Hep G2 cells; settings: 16 μM peptide, 24 hours
Experimental: 2-4. Change in viability in Hep G2 cells according to treatment with ADP-ribose binding peptide After culturing 3×10^3 Hep G2 cells in a 96-well plate for 24 hours under conditions of 37° C. and 5% CO2, the cells were either untreated or treated with the peptides of Examples 1 to 28 at a concentration of 16 μM, respectively. Then, the cells were cultured for 24 hours under conditions of 37° C. and 5% CO2, and 10 μl of 3-(4,5-dimethylthiazol-2-yl)-2,5-diphenyltetrazolium bromide reagent was added to each well, followed by reaction for 1 hour. After the reaction was completed, the reagent was removed, 200 μl of dimethyl sulfoxide was added to each well, and the absorbance was measured to confirm cell viability.

[11] = test system: Hep G2 cells; experiment: ADP-ribose level by ELISA in Hep G2 cells; settings: 0.2-32 μM peptide, 24 hours
Experimental: as §3
5×10^5 Hep G2 cells were divided into a group not treated with the peptide of Example and a group treated with 0.2, 1, 2, 4, 8, 16, and 32 μM of the peptide of Example 4 (SEQ ID NO: 4), and cultured for 24 hours under conditions of 37° C. and 5% CO2 in EMEM medium supplemented with 10% FBS, 100 units/ml penicillin, and 100 μg/ml streptomycin. The medium of the cultured cells was removed, and the samples were treated with RIPA buffer and 1% SDS. The prepared supernatant was used for ELISA analysis to detect and analyze ADP-ribose.

[12] = test system: HCT116 cells; experiment: ADP-ribose level by ELISA in HCT116 cells; settings: 0.2-32 μM peptide, 24 hours
Experimental: as §3
5×10^5 HCT116 cells were divided into a group not treated with the peptide of Example and a group treated with 0.2, 1, 2, 4, 8, 16, and 32 μM of the peptide of Example 6 (SEQ ID NO: 6), and cultured for 24 hours under conditions of 37° C. and 5% CO2 in McCoy's 5A medium supplemented with 10% FBS, 100 units/ml penicillin, and 100 μg/ml streptomycin. The medium of the cultured cells was removed, and the samples were treated with RIPA buffer and 1% SDS. The prepared supernatant was used for ELISA analysis to detect and analyze ADP-ribose.

[13] = test system: HCT116 cells; experiment: Cell viability (MTT, photomicrographs) in HCT116 cells; settings: 16 μM peptide, 24 hours
Experimental: as §2, with “HCT116” for “Caki-1”

[14] = test system: U-87MG cells; experiment: Viability of U-87MG cells, bevacizumab alone or combined with peptides; set-up: dose or concentration left out as unconfirmed; settings: bevacizumab alone, 24 hours
Experimental: as §1, with “culturing 3×10^3 U-87MG cells in” for “culturing 3×10^3 MDA-MB-231 cells in”, “treated with 18 mM of bevacizumab alone or” for “treated with 50 μM docetaxel alone or”, “of Examples 1 to 14” for “of Examples 15 to 28”, “1 to 14 at a” for “15 to 28 at a”, “5% CO2, and 10 μl” for “5% CO2, 10 μl”

CC(=O)O[C@@]12CO[C@@H]1C[C@H](O)[C@@]1(C)C(=O)[C@H](O)C3=C(C)[C@@H](OC(=O)[C@H](O)[C@@H](NC(=O)OC(C)(C)C)c4ccccc4)C[C@@](O)([C@@H](OC(=O)c4ccccc4)[C@H]21)C3(C)C [docetaxel]
cancer cells survived [1]: about 52%

TAYEASVCDYLEQQVARGN (ADP-ribose binding peptide) [Example 14]
cancer cell growth and survival [2]: inhibited from growing and killed | amount of increase in ADP-ribose (fold change) compared to the control group [3]: significant increase in the amount of ADP-ribose in a concentration-dependent manner

FSYKIDFAEMKQMNLTTGKQRLIKR [Example 7]
cytotoxicity to normal cells versus untreated control [4]: no significant difference; also recorded: no toxicity was shown | cytotoxicity to normal cells versus untreated control [5]: no significant difference; also recorded: no toxicity was shown

Nc1ccn([C@@H]2O[C@H](CO)[C@@H](O)C2(F)F)c(=O)n1 [gemcitabine]
cancer cells survived [6]: about 50%

RHYTVNLNTYTATDTKGHSLSVQR (ADP-ribose binding peptide) [Example 12]
cancer cell growth and survival [7]: inhibited from growing and killed | amount of increase in ADP-ribose (fold change) compared to the control group [8]: significant increase in the amount of ADP-ribose in a concentration-dependent manner

C=CC(=O)Nc1cc(Nc2nccc(-c3cn(C)c4ccccc34)n2)c(OC)cc1N(C)CCN(C)C [osimertinib]
viability at 0.001 µM [9]: ~49%

RVYTIDENSMQQINEDTGTARAIQR (RVYTIDFNSMQQINEDTGTARAIQR; ADP-ribose binding peptide) [Example 4]
cancer cell growth and survival [10]: inhibited from growing and killed | amount of increase in ADP-ribose (fold change) compared to the control group [11]: significant increase in the amount of ADP-ribose in a concentration-dependent manner

FLYVADLENMVQYRRNEHGRRRKIKR (ADP-ribose binding peptide) [Example 11]
cancer cell growth and survival [10]: inhibited from growing and killed | amount of increase in ADP-ribose (fold change) compared to the control group [11]: significant increase in the amount of ADP-ribose in a concentration-dependent manner

FSYVIDENTMGQINRQTQRQRRVRR [Example 6]
amount of increase in ADP-ribose (fold change) compared to the control group [12]: significant increase in the amount of ADP-ribose in a concentration-dependent manner | cancer cell growth and survival [13]: inhibited from growing and killed

bevacizumab
viable cancer cells [14]: about 49%

GRYDVHLGERMRYAVYWDELASEVRR (ADP-ribose binding peptide) [Example 13]
amount of increase in ADP-ribose (fold change) compared to the control group [12]: significant increase in the amount of ADP-ribose in a concentration-dependent manner | cancer cell growth and survival [13]: inhibited from growing and killed

FCYLIYFNSMSQMNRQTRRRRRLRR (ADP-ribose binding peptide) [Example 5]
cancer cell growth and survival [7]: inhibited from growing and killed | amount of increase in ADP-ribose (fold change) compared to the control group [8]: significant increase in the amount of ADP-ribose in a concentration-dependent manner
